Assay results as given in PubChem BioAssay AID2060501 (Molecular Pharmacology Branch, DTP, NCI, 2025).

Test system: 282377-053-R-J1-PDC complex spheroids, viability
Assay: Anticancer human tumor 282377-053-R-J1-PDC patient-derived colon adenocarcinoma cell line growth inhibition [GQUAD]
Settings: for IC50: curve of first compound; for viability, T/C: stronger effect = lower value
How it was run: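 Tumor cells were grown as complex spheroids with HUVEC endothelial cells and mesenchymal stem cells as stroma. G-quadruplex stabilizers were combined with targeted agents over half-log dilutions from near the clinical Cmax, or from 10 microM.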

[1] = second compound 0.0316 µM, first compound 0.0316 µM
[2] = second compound 0.0316 µM, first compound 0.316 µM
[3] = second compound 0.1 µM, first compound 0.0316 µM
[4] = second compound 0.1 µM, first compound 0.316 µM
[5] = second compound 0.316 µM, first compound 0.0316 µM
[6] = second compound 0.316 µM, first compound 0.316 µM
[7] = second compound 1 µM, first compound 0.0316 µM
[8] = second compound 1 µM, first compound 0.316 µM
[9] = second compound 3.16 µM, first compound 0.0316 µM
[10] = second compound 3.16 µM, first compound 0.316 µM
[11] = second compound 10 µM, first compound 0.0316 µM
[12] = second compound 10 µM, first compound 0.316 µM
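Also: spheroids exposed to compounds for 7 days before readout.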
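For viability, T/C in this document: percent of vehicle DMSO control viability with 100% = untreated-like growth.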

C=CC(=O)N1CCN(c2nc(=O)n(-c3c(C)ccnc3C(C)C)c3nc(-c4c(O)cccc4F)c(F)cc23)C(C)C1 (centres undefined) + Cc1[nH]c2ccc(F)cc2c1-c1nc2c3cccnc3c3ncccc3c2[nH]1
IC50 (second compound 0.0316 µM): > 10000 nM | IC50 (second compound 0.1 µM): > 10000 nM | IC50 (second compound 0.316 µM): > 10000 nM | IC50 (second compound 1 µM): > 10000 nM | IC50 (second compound 3.16 µM): 9670 nM | IC50 (second compound 10 µM): < 31.6 nM | viability, T/C [1]: 106% | viability, T/C (second compound 0.0316 µM, first compound 0.1 µM): 102% | viability, T/C [2]: 125% | viability, T/C (second compound 0.0316 µM, first compound 1 µM): 108% | viability, T/C (second compound 0.0316 µM, first compound 3.16 µM): 126% | viability, T/C (second compound 0.0316 µM, first compound 10 µM): 80.9% | viability, T/C [3]: 122% | viability, T/C (second compound 0.1 µM, first compound 0.1 µM): 110% | viability, T/C [4]: 98.9% | viability, T/C (second compound 0.1 µM, first compound 1 µM): 100% | viability, T/C (second compound 0.1 µM, first compound 3.16 µM): 100% | viability, T/C (second compound 0.1 µM, first compound 10 µM): 89.9% | viability, T/C [5]: 109% | viability, T/C (second compound 0.316 µM, first compound 0.1 µM): 110% | viability, T/C [6]: 87.1% | viability, T/C (second compound 0.316 µM, first compound 1 µM): 122% | viability, T/C (second compound 0.316 µM, first compound 3.16 µM): 105% | viability, T/C (second compound 0.316 µM, first compound 10 µM): 99.8% | viability, T/C [7]: 114% | viability, T/C (second compound 1 µM, first compound 0.1 µM): 98.1% | viability, T/C [8]: 103% | viability, T/C (second compound 1 µM, first compound 1 µM): 106% | viability, T/C (second compound 1 µM, first compound 3.16 µM): 119% | viability, T/C (second compound 1 µM, first compound 10 µM): 103% | viability, T/C [9]: 82.1% | viability, T/C (second compound 3.16 µM, first compound 0.1 µM): 108% | viability, T/C [10]: 71.5% | viability, T/C (second compound 3.16 µM, first compound 1 µM): 75.9% | viability, T/C (second compound 3.16 µM, first compound 3.16 µM): 98.4% | viability, T/C (second compound 3.16 µM, first compound 10 µM): 48.8% | viability, T/C [11]: 28.3% | viability, T/C (second compound 10 µM, first compound 0.1 µM): 32% | viability, T/C [12]: 37.6% | viability, T/C (second compound 10 µM, first compound 1 µM): 40% | viability, T/C (second compound 10 µM, first compound 3.16 µM): 31% | viability, T/C (second compound 10 µM, first compound 10 µM): 27.2%

CC[C@@]1(O)C(=O)OCc2c1cc1n(c2=O)Cc2cc3c(CN(C)C)c(O)ccc3nc2-1 + Cc1[nH]c2ccc(F)cc2c1-c1nc2c3cccnc3c3ncccc3c2[nH]1
IC50 (second compound 0.0316 µM): > 316 nM | IC50 (second compound 0.1 µM): > 316 nM | IC50 (second compound 0.316 µM): > 316 nM | IC50 (second compound 1 µM): > 316 nM | IC50 (second compound 3.16 µM): 130 nM | IC50 (second compound 10 µM): < 0.999 nM | viability, T/C (second compound 0.0316 µM, first compound 0.000999 µM): 92.6% | viability, T/C (second compound 0.0316 µM, first compound 0.00316 µM): 117% | viability, T/C (second compound 0.0316 µM, first compound 0.00999 µM): 116% | viability, T/C [1]: 93.1% | viability, T/C (second compound 0.0316 µM, first compound 0.0999 µM): 91.5% | viability, T/C [2]: 49.9% | viability, T/C (second compound 0.1 µM, first compound 0.000999 µM): 126% | viability, T/C (second compound 0.1 µM, first compound 0.00316 µM): 93.2% | viability, T/C (second compound 0.1 µM, first compound 0.00999 µM): 87.1% | viability, T/C [3]: 92% | viability, T/C (second compound 0.1 µM, first compound 0.0999 µM): 93.2% | viability, T/C [4]: 58.8% | viability, T/C (second compound 0.316 µM, first compound 0.000999 µM): 80.3% | viability, T/C (second compound 0.316 µM, first compound 0.00316 µM): 104% | viability, T/C (second compound 0.316 µM, first compound 0.00999 µM): 103% | viability, T/C [5]: 94.2% | viability, T/C (second compound 0.316 µM, first compound 0.0999 µM): 84% | viability, T/C [6]: 61.9% | viability, T/C (second compound 1 µM, first compound 0.000999 µM): 86.6% | viability, T/C (second compound 1 µM, first compound 0.00316 µM): 109% | viability, T/C (second compound 1 µM, first compound 0.00999 µM): 94.8% | viability, T/C [7]: 102% | viability, T/C (second compound 1 µM, first compound 0.0999 µM): 94.8% | viability, T/C [8]: 54.3% | viability, T/C (second compound 3.16 µM, first compound 0.000999 µM): 77.8% | viability, T/C (second compound 3.16 µM, first compound 0.00316 µM): 79.4% | viability, T/C (second compound 3.16 µM, first compound 0.00999 µM): 81.4% | viability, T/C [9]: 58.3% | viability, T/C (second compound 3.16 µM, first compound 0.0999 µM): 64% | viability, T/C [10]: 24.5% | viability, T/C (second compound 10 µM, first compound 0.000999 µM): 36.6% | viability, T/C (second compound 10 µM, first compound 0.00316 µM): 35.9% | viability, T/C (second compound 10 µM, first compound 0.00999 µM): 48.3% | viability, T/C [11]: 41.5% | viability, T/C (second compound 10 µM, first compound 0.0999 µM): 31.3% | viability, T/C [12]: 17.5%
